The text below walks through data of ChEMBL document CHEMBL1125730, “Dual inhibitors of thromboxane A2 synthase and 5-lipoxygenase with scavenging activity of active oxygen species. Synthesis of a novel series of (3-pyridylmethyl)benzoquinone derivatives” (J Med Chem, 1991).

The target in data set [1] is T1, Thromboxane-A synthase (Rattus norvegicus) (UniProt P49430).
T1 sequence (whole entry): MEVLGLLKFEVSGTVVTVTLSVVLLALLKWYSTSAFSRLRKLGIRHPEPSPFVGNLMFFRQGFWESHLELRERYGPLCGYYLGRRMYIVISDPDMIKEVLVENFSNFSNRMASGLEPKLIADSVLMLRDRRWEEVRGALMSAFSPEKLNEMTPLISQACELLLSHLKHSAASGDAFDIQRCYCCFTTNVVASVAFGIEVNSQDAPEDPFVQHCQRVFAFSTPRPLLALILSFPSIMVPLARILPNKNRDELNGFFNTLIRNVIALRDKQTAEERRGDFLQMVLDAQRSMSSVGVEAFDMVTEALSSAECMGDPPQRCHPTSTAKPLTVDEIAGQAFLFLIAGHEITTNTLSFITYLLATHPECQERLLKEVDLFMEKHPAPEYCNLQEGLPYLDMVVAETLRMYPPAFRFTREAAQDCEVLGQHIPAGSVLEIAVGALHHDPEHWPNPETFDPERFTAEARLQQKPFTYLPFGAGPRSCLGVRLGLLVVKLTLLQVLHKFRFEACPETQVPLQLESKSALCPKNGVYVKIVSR
Briefly: Inhibition of rat thromboxane A2 synthase evaluated as percent inhibition of thromboxane B2 formation after 24 hr of administration at 10 mg/kg. The class given is functional, organism-based. Details: dose 10 mg/kg.

The nature of data set [2]: physchem. The following applies: octanol/water.
Description: Partition coefficient (logP)
Data set [3] is filed under the species Equus caballus. Briefly: The concentration required to reduce by 50% the amount of LTB4 formed by RBL-1 cells. The class given is functional, organism-based.
In data set [4] the test system is Rattus norvegicus. The data set is described as follows: Compound was evaluated […] for percent inhibition of lipid peroxidation in rat brain homogenates at 10e-6 M. The data set is classed as functional.
In data set [5] the test system is Rattus norvegicus. The data set is described as follows: Protective effect was evaluated by measuring the urinary albumin by peroral administering 100 mg/kg per day for four weeks in adriamycin induced proteinuria 7 rats for four weeks. The following applies: route oral. The class given is functional, Urine.
For data set [6], the system named is Rattus norvegicus. The data set is described as follows: Protective effect was evaluated by measuring the urinary total protein by peroral administering 100 mg/kg per day for four weeks in adriamycin induced proteinuria in 7 rats for four weeks. The data set is classed as functional, Urine. The following applies: route oral.
Data set [7] addresses T2, Thromboxane-A synthase (Homo sapiens) (UniProt P24557).
T2 sequence (whole entry): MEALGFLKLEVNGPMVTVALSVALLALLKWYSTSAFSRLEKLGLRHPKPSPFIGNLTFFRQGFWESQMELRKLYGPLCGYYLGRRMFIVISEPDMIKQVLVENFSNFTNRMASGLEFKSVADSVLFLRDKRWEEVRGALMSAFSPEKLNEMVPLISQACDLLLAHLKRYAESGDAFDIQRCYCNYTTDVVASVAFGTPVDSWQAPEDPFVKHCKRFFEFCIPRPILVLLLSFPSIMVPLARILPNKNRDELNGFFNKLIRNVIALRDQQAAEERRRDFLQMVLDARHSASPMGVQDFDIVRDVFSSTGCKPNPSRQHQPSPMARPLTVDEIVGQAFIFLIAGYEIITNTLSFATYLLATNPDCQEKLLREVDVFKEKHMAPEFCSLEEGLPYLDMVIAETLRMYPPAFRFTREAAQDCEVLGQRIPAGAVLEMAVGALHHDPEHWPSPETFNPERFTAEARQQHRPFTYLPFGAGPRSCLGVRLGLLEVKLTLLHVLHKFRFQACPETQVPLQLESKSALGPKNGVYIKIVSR
The data set is described as follows: Inhibitory activity of compound against thromboxane A2 synthase evaluated as percent inhibition of thromboxane B2 formation after 24 hr of administration of 10 mg/kg of compound in rat. The data set is classed as functional, organism-based. The arrangement: dose 10 mg/kg.

In data set [8] the target is T3, Polyunsaturated fatty acid 5-lipoxygenase (Rattus norvegicus, UniProt P12527).
T3 sequence (P12527 whole entry): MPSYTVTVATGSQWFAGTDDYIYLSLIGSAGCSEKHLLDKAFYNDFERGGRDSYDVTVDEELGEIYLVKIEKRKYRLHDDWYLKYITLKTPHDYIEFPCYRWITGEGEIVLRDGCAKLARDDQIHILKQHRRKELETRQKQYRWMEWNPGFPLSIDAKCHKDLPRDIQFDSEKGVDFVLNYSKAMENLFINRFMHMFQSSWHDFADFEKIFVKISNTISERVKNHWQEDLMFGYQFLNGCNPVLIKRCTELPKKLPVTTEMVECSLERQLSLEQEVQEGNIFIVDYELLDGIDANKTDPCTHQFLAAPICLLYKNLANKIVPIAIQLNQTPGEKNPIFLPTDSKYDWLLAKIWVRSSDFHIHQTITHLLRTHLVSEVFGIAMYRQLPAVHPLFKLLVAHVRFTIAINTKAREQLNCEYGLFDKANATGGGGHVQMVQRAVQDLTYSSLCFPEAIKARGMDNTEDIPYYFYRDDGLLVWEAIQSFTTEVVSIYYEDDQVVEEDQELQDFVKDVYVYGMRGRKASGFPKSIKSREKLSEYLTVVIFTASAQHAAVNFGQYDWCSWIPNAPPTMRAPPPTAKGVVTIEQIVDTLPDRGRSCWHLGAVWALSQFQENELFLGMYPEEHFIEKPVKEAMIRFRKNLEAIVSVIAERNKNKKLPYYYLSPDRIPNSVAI

Data set [9] relates to RBL-1. Briefly: cells. Particulars: Rattus norvegicus.
The subject of data set [10] is Rattus norvegicus. Briefly: Protective effect was evaluated by measuring the urinary total protein by peroral administering 100 mg/kg per day for four weeks in 7 rats for four weeks. The class given is functional, Urine. Particulars: route oral.
The target in data set [11] is T2, Thromboxane-A synthase (Homo sapiens). The data set is described as follows: Inhibitory activity of compound against thromboxane A2 synthase evaluated as percent inhibition of thromboxane B2 formed by incubating PGH-2 with horse platelet microsomes. The data set is classed as functional. Particulars: Equus caballus; target entry is the homologue from another species; concentration not given here.

In data set [12] the test system is Rattus norvegicus. The data set is described as follows: Protective effect was evaluated by measuring the urinary albumin by peroral administering 10 mg/kg per day for four weeks in 8 rats. The data set is classed as functional, Urine. Particulars: route oral.
Data set [13] concerns Rattus norvegicus. The data set is described as follows: Protective effect was evaluated by measuring the urinary total protein by peroral administering 10 mg/kg per day for four weeks in 8 rats. The following applies: route oral. The class given is functional, Urine.

One may read the inhibition as the share of the control response that was lost under treatment. High values mean strong suppression, low ones little suppression. Broadly, the logP is a log measure of how a compound divides between an organic and an aqueous phase. The low end stands for a more hydrophilic compound, the high end for a more lipophilic compound. As a reminder, the IC50 is the point on the concentration scale where inhibition reaches its midpoint. Read a low IC50 as inhibition by little substance. Broadly, the Inhibition is the relative decrease from the control value, in per cent. The low end stands for little suppression, the high end for strong suppression.

In data set [1], `COC1=C(OC)C(=O)C(Cc2cccnc2)=C(C)C1=O` had an inhibition of 74%. In addition, the logP in [2] was found to be 0.61.
Regarding `CC1=C(C)C(=O)C(C(CCCC(=O)O)c2cccnc2)=C(C)C1=O` (centres undefined), the IC50 in [3] was found to be 10000 nM. In addition, the Inhibition in data set [4] came out at 37%. In [2], this compound showed a logP of 0.35.
Take `CCCCCCCCCCCCCCCCCCOC1=C(O)[C@@H](C(O)CO)OC1=O` (some centres undefined): the Albumin in [5] came to 70 mg 100g-1 24hr-1. This compound also showed a Total protein in data set [6] of 122 mg 100g-1 24hr-1.
`CC1=C(C)C(=O)C(C(CCCCCO)c2cccnc2)=C(C)C1=O` (centres undefined): in data set [7], the inhibition was determined as 72%. For the same compound, 100 nM corresponded to half-maximal inhibition in data set [8] (IC50). This compound also returned a logP in data set [2] of 3.69.
`CC1=C(Cc2cccnc2)C(=O)c2ccccc2C1=O` gave an inhibition in data set [1] of 92%. The compound further had an IC50 in data set [8] of 82 nM. The compound further showed a logP in data set [2] of 2.77.
In [8], `CC1=C(C)C(=O)C(C(c2cccnc2)c2cccc(CCC(=O)O)c2)=C(C)C1=O` (centres undefined) displayed an IC50 of 100000 nM. In data set [2], the logP turned out to be 2.08.
`CCCCC/C=C(/C1=C(C)C(=O)C(C)=C(C)C1=O)c1cccnc1` showed an IC50 in data set [9] of 260 nM. Also, the logP in [2] is 5.05.
As to `CC1=C(C)C(=O)C(C(CCCCCC(=O)O)c2cccnc2)=C(C)C1=O` (centres undefined), the inhibition in data set [1] is 90%. The midpoint of inhibition in [8], the IC50, lay at 9300 nM. The same compound yielded a logP in [2] of 1.35.
For `CCCCC/C=C(\C1=C(C)C(=O)C(C)=C(C)C1=O)c1cccnc1`, inhibition in data set [3] was half-maximal at 220 nM (IC50). In data set [2], this compound registered a logP of 5.05.
`CC1=C(/C=C(\C)C(=O)O)C(=O)C(C)=C(Cc2cccnc2)C1=O`: the inhibition in [1] is 73%. In data set [8], this compound had an IC50 of 8700 nM. Further, the logP in [2] is -0.65.
Compound `CC1=C(C)C(=O)C(C(CCCCCCC(=O)O)c2cccnc2)=C(C)C1=O` (centres undefined) came in with an inhibition in data set [1] of 97%. The IC50 in data set [8] was 7000 nM. The logP in [2] stood at 1.85.
In the case of `O=C(O)CCCC/C=C(\c1ccccc1)c1cccnc1` [(E)-ISBOGREL], the Albumin in [5] stood at 75 mg 100g-1 24hr-1. This compound came in with a Total protein in data set [10] of 131 mg 100g-1 24hr-1. For the same compound, the inhibition in data set [1] worked out at 90%.
Turning to `CC1=C(C)C(=O)C(C(C)c2cccnc2)=C(C)C1=O` (centres undefined), the inhibition in [1] was 90%; in data set [11] it was 89%. In [8], this compound came in with an IC50 of 9500 nM. Also, in data set [2], the logP came out at 2.85.
Compound `CC1=C(CCC(=O)O)C(=O)C(C)=C(Cc2cccnc2)C1=O` had an inhibition in [1] of 86%. The compound further gave an IC50 in data set [8] of 5000 nM. For the same compound, the logP in [2] is -0.65.
Compound `CC(=O)OCCCCC(C1=C(C)C(=O)C(C)=C(C)C1=O)c1cccnc1` (centres undefined) had an inhibition in data set [7] of 37%. Moreover, in [8], inhibition was half-maximal at 250 nM (IC50). The compound also gave a logP in data set [2] of 4.08.
The compound `CC1=C(C)C(=O)C(C(CCCCO)c2cccnc2)=C(C)C1=O` (centres undefined) showed an inhibition in [1] of 40%. The IC50 in [8] worked out at 100 nM. This compound came in with a logP in data set [2] of 3.19.
In turn, `CC1=C(C)C(=O)C(Cc2cccnc2)=C(C)C1=O` yielded an Albumin in [12] of 39 mg 100g-1 24hr-1. Moreover, in data set [13], the Total protein is recorded as 60 mg 100g-1 24hr-1. This compound showed an inhibition in data set [1] of 86%. The 50% inhibitory concentration (IC50) in data set [8] came to 62 nM. Also, the logP in [2] is 2.55.
`CC1=C(C)C(=O)C(C(CCCCC(=O)O)c2cccnc2)=C(C)C1=O` (centres undefined): the inhibition in [1] is 64%. In data set [8], this compound gave an IC50 of 60000 nM. In data set [2], this compound had a logP of 0.85.
Turning to `CC1=C(C)C(=O)C(CCCCC#CCCCC#CCO)=C(C)C1=O` [DOCEBENONE], the Albumin in data set [5] worked out at 49 mg 100g-1 24hr-1. The same compound displayed a Total protein in [6] of 95 mg 100g-1 24hr-1. The IC50 in [8] stood at 90 nM.
With `CC1=C(/C=C/C(=O)O)C(=O)C(C)=C(Cc2cccnc2)C1=O`, the inhibition in [1] turned out to be 90%. Also, in data set [8], half-maximal inhibition (IC50) was put at 8800 nM. The compound further gave a logP in data set [2] of -0.95.
In the same order, the values of `CC1=C(C)C(=O)C(C(c2cccnc2)c2cccc(/C=C(\C)C(=O)O)c2)=C(C)C1=O` (centres undefined) are 19%, 100000 nM and 2.08.
With `CCCCCCC(C1=C(C)C(=O)C(C)=C(C)C1=O)c1cccnc1` (centres undefined), the inhibition in [1] amounted to 70%. In data set [8], this compound yielded an IC50 of 73 nM. The compound also yielded a logP in data set [2] of 5.35.
The like results for `CCC(C1=C(C)C(=O)C(C)=C(C)C1=O)c1cccnc1` (centres undefined) were, in that order, 75%, 660 nM and 3.35.
In [7], `CC(=O)OCCCCCC(C1=C(C)C(=O)C(C)=C(C)C1=O)c1cccnc1` (centres undefined) displayed an inhibition of 84%. For the same compound, the IC50 in data set [8] came to 87 nM. Besides, the logP in data set [2] worked out at 4.58.
For the compound `CC1=C(C)C(=O)C(/C(=C/CCCCC(=O)O)c2cccnc2)=C(C)C1=O`, the inhibition in data set [1] turned out to be 91%. This compound registered an IC50 in [8] of 7200 nM. Further, in data set [2], the logP came out at 1.05.
In data set [1], `CCOC(=O)/C=C/C1=C(C)C(=O)C(Cc2cccnc2)=C(C)C1=O` came in with an inhibition of 80%. Further, in [8], the IC50 stood at 8 nM. Also, the logP in data set [2] was determined as 3.28.
With `CCCCC(C1=C(C)C(=O)C(C)=C(C)C1=O)c1cccnc1` (centres undefined), in data set [1], the inhibition amounted to 97%. In addition, 830 nM corresponded to half-maximal inhibition in [8] (IC50). The compound further registered a logP in data set [2] of 4.35.
